Here are results for 10 compounds from PubChem BioAssay (NCI).

Where “and” joins values, the source holds several entries; their conditions need not be identical. Identical values can stand only once.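 Method: 48-hour compound exposure of cells in 96-well plates, five concentrations, linear interpolation of endpoints. The concentration for 50% growth inhibition is given as GI50. Definition used: TGI = concentration required for complete inhibition of growth.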

Among the test systems are NCI-H23 lung; MDA-MB-435; HCC-2998 colon; OVCAR-4 ovarian; ACHN renal; SF-539 CNS; BT-549 breast; KM12 colon; HT29 colon; SF-268 CNS.
Holding throughout (experiment): growth of human tumour cells (NCI), 48 h

For `CO/C(=N\N=C\c1cccc(C(F)(F)F)c1)c1ccncc1`, the TGI was 42.6 µM in the assay on NCI-H23 lung; 6.17 µM and 25.5 µM in the assay on MDA-MB-435; 22.5 µM with HCC-2998 colon; greater than 100 µM in the assay with OVCAR-4 ovarian; greater than 100 µM in the assay on ACHN renal; 37.1 µM in the assay with SF-539 CNS. In addition, the TGI in the assay on BT-549 breast is 68 µM; with KM12 colon, greater than 100 µM; with HT29 colon, 19 µM. Further, the GI50 was 3.33 µM with MDA-MB-435, 27.3 µM in the assay with ACHN renal, 8.78 µM in the assay on BT-549 breast and 3.47 µM in the assay with HT29 colon.

Consider `CN1CCC(n2[nH]c(-c3ccccc3)c(Cc3ccccc3)c2=O)CC1`, for which the TGI with NCI-H23 lung, with MDA-MB-435, in the assay on HCC-2998 colon, in the assay with SF-268 CNS, with OVCAR-4 ovarian and in the assay with ACHN renal was greater than 100 µM in each case. The TGI in the assay with SF-539 CNS, in the assay with BT-549 breast, in the assay on KM12 colon and with HT29 colon was greater than 100 µM in each case.

As for `COc1ccc2c(c1)[C@@]1(C)CCC3c4ccc(O)cc4CCC3C1C2` (stereo not given in full), the GI50 in the assay on NCI-H23 lung is 16.8 µM; in the assay with MDA-MB-435 it was 15 µM; with HCC-2998 colon, 18 µM; with SF-268 CNS, 16.3 µM; in the assay with OVCAR-4 ovarian, 13.7 µM; in the assay on ACHN renal, 15.9 µM. Besides, the GI50 in the assay with SF-539 CNS was 20.3 µM; in the assay on BT-549 breast it was 22.4 µM; with KM12 colon it was 15.4 µM; in the assay on HT29 colon it was 3.96 µM. The TGI was found to be 30.8 µM in the assay with NCI-H23 lung; 31 µM in the assay with MDA-MB-435; 32.3 µM in the assay on HCC-2998 colon; 32.6 µM in the assay on SF-268 CNS; 28.4 µM in the assay on OVCAR-4 ovarian; 29.8 µM with ACHN renal. The TGI is 38.9 µM in the assay with SF-539 CNS, 40.7 µM in the assay with BT-549 breast, 36.8 µM in the assay with KM12 colon and 17.5 µM with HT29 colon.

On to `NC1=C(Cl)C(=O)c2ccccc2C1=O`, for which the TGI in the assay with NCI-H23 lung is 6.32 µM; with MDA-MB-435, 2.05 µM; in the assay on HCC-2998 colon, 24.4 µM; in the assay with SF-268 CNS, 33.2 µM; in the assay on OVCAR-4 ovarian, 15.9 µM; in the assay on ACHN renal it was 22.7 µM. In addition, the TGI is 20.8 µM in the assay with SF-539 CNS, 4.19 µM in the assay on BT-549 breast, 25.7 µM in the assay on KM12 colon and 30.4 µM with HT29 colon.

`CCN1CCC(CC(=O)Nc2n[nH]c3nc(-c4cccs4)c(Br)cc23)CC1`: the GI50 in the assay with NCI-H23 lung is 20.1 µM; in the assay with MDA-MB-435, 5.35 µM; in the assay on HCC-2998 colon, 12 µM; in the assay with SF-268 CNS, 11.5 µM; in the assay on OVCAR-4 ovarian, 11.5 µM; in the assay on ACHN renal, 7.96 µM. For the same compound, the GI50 is 9.22 µM in the assay on SF-539 CNS, greater than 23 µM with BT-549 breast, 5.81 µM in the assay on KM12 colon and 4.47 µM in the assay on HT29 colon. For the same compound, the TGI in the assay with NCI-H23 lung is greater than 25 µM; in the assay with MDA-MB-435, 14.5 µM; in the assay with HCC-2998 colon, greater than 25 µM; with SF-268 CNS, greater than 25 µM; in the assay with OVCAR-4 ovarian it was greater than 25 µM; with ACHN renal, greater than 25 µM. The TGI in the assay on SF-539 CNS was greater than 22.2 µM; in the assay with BT-549 breast, greater than 25 µM; in the assay with KM12 colon, 13.8 µM; in the assay with HT29 colon, 11.1 µM.

As to `CO/N=C(/COc1c(-c2ccccc2)oc2ccccc2c1=O)c1ccc(F)cc1`, the GI50 is greater than 100 µM in the assay on NCI-H23 lung; greater than 100 µM in the assay on MDA-MB-435; greater than 100 µM in the assay with HCC-2998 colon; 25.9 µM in the assay on OVCAR-4 ovarian; 31.8 µM with ACHN renal; 85.6 µM in the assay on SF-539 CNS. In addition, the GI50 is 82.9 µM in the assay on BT-549 breast, greater than 100 µM in the assay with KM12 colon and greater than 100 µM in the assay on HT29 colon. Besides, the TGI in the assay on NCI-H23 lung is greater than 100 µM; in the assay on MDA-MB-435, greater than 100 µM; in the assay with HCC-2998 colon it was greater than 100 µM; in the assay with OVCAR-4 ovarian, 71.4 µM; in the assay on ACHN renal, greater than 100 µM; in the assay with SF-539 CNS it was greater than 100 µM. Moreover, the TGI in the assay on BT-549 breast, in the assay on KM12 colon and with HT29 colon was greater than 100 µM each time.

Take `CC[C@@]1(O)C(=O)OCc2c1cc1n(c2=O)Cc2cc3c(NC(=O)CN)cccc3nc2-1`: the TGI with NCI-H23 lung was 4.26 µM; in the assay on MDA-MB-435, 17.3 µM; in the assay with HCC-2998 colon, 9.05 µM; in the assay on SF-268 CNS, greater than 39.8 µM; in the assay on OVCAR-4 ovarian, greater than 100 µM; in the assay with ACHN renal, 1.02 µM. In addition, the values for the TGI in the assay on BT-549 breast, in the assay with KM12 colon and with HT29 colon were greater than 100 µM, 34.6 µM and greater than 100 µM, respectively.

In the case of `COc1ccc(-c2ccccc2)cc1-c1c(Nc2cc(Cl)cc(Cl)c2O)c(=O)c1=O`, the GI50 in the assay on NCI-H23 lung was 1.38 µM; with HCC-2998 colon it was 1.78 µM; in the assay on SF-268 CNS, 1.31 µM; in the assay on OVCAR-4 ovarian, 1.59 µM; in the assay on ACHN renal, 1.5 µM; in the assay with SF-539 CNS, 1.59 µM. For the same compound, the GI50 with BT-549 breast was 1.41 µM; with KM12 colon, 1.53 µM; with HT29 colon it was 1.92 µM. In addition, the TGI in the assay with NCI-H23 lung, in the assay with HCC-2998 colon, with SF-268 CNS, with OVCAR-4 ovarian, with ACHN renal and in the assay on SF-539 CNS was greater than 50 µM throughout. Moreover, the TGI in the assay with BT-549 breast was 4.59 µM; in the assay with KM12 colon, greater than 50 µM; with HT29 colon, greater than 50 µM.

For the compound `NC(=O)NCCSC1CCCCC1O` (stereo not given), the TGI in the assay on NCI-H23 lung, in the assay on MDA-MB-435, in the assay on SF-268 CNS, in the assay with OVCAR-4 ovarian, in the assay on ACHN renal and in the assay with SF-539 CNS was greater than 100 µM each time. The TGI in the assay with BT-549 breast, in the assay on KM12 colon and with HT29 colon was greater than 100 µM each time.

Take `C=C1C(=O)O[C@H]2C[C@@H]1CCC1(C)OC1CC/C(C)=C/CC[C@H]2C` (stereo not given in full): the GI50 was 19.6 µM with NCI-H23 lung; 18.9 µM in the assay with MDA-MB-435; 18.9 µM in the assay with HCC-2998 colon; 18.7 µM in the assay with SF-268 CNS; greater than 100 µM in the assay on ACHN renal; 28.8 µM in the assay on SF-539 CNS. The GI50 in the assay on BT-549 breast was 23.5 µM; in the assay on KM12 colon, 22.2 µM; with HT29 colon it was 20.1 µM. Also, the TGI in the assay on NCI-H23 lung was 37.1 µM; with MDA-MB-435, 34.6 µM; in the assay with HCC-2998 colon, 33.1 µM; in the assay with SF-268 CNS it was 37 µM; in the assay on ACHN renal, greater than 100 µM; in the assay with SF-539 CNS, 50.6 µM. Further, the results for the TGI in the assay with BT-549 breast, in the assay on KM12 colon and in the assay with HT29 colon were 45.3 µM, 43.1 µM and 34.3 µM, respectively.
